Consider 12 compounds from patent US11427548B2 (Arvinas Operations, Inc., priority 2015, dated 2022).

Structures are written as SMILES. Where two headings read alike, the source gives them in different places.

In assay [1] the target is T1, Androgen Receptor (Homo sapiens, UniProt P10275+P40337, T878A).
T1 construct: Compounds have been evaluated in this assay in LNCaP and/or VCaP cells utilizing similar protocols; endogenous in cells; host or cells: LNCaP cells
The assay is described as follows: Androgen Receptor ELISA assay (PathScan AR ELISA) in LNCaP cells: AR degradation, Dmax and DC50. In kind it is cell-based. Particulars: for DC50: concentration that caused 50% Androgen Receptor degradation; for Dmax: highest percentage of Androgen Receptor degradation observed.

In assay [2] the target is T2, Androgen Receptor (Homo sapiens, UniProt P10275).
T2 construct: endogenous in cells; host or cells: VCaP cells
T2 sequence (P10275 1-920): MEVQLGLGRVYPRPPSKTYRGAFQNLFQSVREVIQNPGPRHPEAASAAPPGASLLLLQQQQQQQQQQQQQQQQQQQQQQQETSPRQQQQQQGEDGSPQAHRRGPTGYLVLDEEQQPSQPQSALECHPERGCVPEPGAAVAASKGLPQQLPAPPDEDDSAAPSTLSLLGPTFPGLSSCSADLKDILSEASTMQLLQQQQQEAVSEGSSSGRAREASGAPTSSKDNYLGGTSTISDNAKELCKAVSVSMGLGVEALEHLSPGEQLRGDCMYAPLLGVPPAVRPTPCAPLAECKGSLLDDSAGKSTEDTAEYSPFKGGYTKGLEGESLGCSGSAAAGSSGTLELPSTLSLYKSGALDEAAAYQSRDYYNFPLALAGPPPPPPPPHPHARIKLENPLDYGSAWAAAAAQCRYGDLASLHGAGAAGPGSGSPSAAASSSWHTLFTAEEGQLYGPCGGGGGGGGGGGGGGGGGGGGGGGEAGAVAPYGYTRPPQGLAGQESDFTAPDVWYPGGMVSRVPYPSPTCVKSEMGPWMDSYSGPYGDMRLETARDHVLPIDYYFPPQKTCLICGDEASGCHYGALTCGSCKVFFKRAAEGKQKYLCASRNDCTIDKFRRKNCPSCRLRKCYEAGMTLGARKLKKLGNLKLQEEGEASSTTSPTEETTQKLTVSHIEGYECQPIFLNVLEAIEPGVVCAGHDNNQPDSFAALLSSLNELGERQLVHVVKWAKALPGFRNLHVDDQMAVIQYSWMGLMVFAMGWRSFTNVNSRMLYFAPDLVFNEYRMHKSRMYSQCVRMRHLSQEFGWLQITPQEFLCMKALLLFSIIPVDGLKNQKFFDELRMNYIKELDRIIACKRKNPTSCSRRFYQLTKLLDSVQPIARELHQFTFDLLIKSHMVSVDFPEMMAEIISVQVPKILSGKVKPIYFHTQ
The experiment in a line: Androgen Receptor ELISA assay (PathScan AR ELISA) in VCaP cells: AR degradation, Dmax and DC50. In kind it is cell-based. Particulars: for DC50: read-out: VCaP DC50; for Dmax: VCaP, read-out: VCaP Dmax (%). Put shortly: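 VCaP cells in phenol red-free RPMI with 5% charcoal-stripped FBS were grown at least 3 days, then given compound as 7 half-log doses in 0.1% DMSO with 0.1 nM R1881 for 24 h. Lysates went into a sandwich AR ELISA with TMB read at 450 nm.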

T1 sequence (P10275 whole entry T878A): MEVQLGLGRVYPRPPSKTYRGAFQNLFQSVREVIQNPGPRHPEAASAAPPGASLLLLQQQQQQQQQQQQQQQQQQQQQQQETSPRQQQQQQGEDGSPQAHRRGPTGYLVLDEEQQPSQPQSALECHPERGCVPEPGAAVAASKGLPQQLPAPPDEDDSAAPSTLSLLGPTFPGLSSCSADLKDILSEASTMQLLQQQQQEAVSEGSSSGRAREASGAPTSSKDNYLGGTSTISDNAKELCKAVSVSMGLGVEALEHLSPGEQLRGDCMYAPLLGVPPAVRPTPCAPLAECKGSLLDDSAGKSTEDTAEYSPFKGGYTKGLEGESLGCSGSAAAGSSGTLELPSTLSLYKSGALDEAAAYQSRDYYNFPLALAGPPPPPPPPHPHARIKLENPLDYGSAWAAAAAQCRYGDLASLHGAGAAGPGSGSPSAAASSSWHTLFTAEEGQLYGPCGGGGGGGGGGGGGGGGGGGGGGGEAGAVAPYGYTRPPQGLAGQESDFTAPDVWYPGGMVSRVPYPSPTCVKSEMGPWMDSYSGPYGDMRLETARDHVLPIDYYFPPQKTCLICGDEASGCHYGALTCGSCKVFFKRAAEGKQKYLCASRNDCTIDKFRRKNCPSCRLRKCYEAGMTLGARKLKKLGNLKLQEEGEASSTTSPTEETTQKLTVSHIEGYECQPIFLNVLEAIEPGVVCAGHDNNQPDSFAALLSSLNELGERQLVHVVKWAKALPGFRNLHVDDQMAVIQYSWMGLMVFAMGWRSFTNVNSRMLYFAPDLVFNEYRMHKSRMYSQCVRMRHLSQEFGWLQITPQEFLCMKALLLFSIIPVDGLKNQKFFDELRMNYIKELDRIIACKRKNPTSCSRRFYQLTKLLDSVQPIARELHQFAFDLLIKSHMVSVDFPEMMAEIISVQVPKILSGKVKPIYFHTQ
T1 sequence (P40337 whole entry): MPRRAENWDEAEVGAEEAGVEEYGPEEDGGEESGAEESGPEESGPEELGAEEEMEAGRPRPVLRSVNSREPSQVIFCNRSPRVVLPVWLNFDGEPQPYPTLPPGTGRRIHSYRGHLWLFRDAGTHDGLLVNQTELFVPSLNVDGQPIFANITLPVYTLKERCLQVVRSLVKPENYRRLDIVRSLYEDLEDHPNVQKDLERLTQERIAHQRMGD
T1 sequence (Q15369 whole entry partner): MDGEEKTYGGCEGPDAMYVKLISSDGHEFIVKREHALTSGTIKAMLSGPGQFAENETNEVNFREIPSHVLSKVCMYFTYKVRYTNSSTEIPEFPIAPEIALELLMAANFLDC
T1 sequence (Q15370 whole entry partner): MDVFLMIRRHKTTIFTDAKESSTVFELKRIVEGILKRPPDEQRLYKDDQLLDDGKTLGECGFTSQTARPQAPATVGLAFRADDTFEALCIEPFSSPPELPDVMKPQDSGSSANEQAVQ

What is called DC50 is the concentration at which degradation of the target reaches its halfway point. What is called Dmax is the largest share of the target that was removed. Regarding `Cc1ncsc1-c1ccc(CNC(=O)[C@@H]2C[C@@H](O)CN2C(=O)[C@@H](NC(=O)COCCCOCCCCCOc2ccc(N3C(=S)N(c4ccc(C#N)c(C(F)(F)F)c4)C(=O)C3(C)C)cc2F)C(C)(C)C)cc1` [Example 3, (2S,4R)-1-[(2S)-2-[2-(3-{[5-(4-{3-[4-cyano-3-(trifluoromethyl)phenyl]-5,5-dimethyl-4-oxo-2-sulfanylideneimidazolidin-1-yl}-2-fluorophenoxy)pentyl]oxy}propoxy)acetamido]-3,3-dimethylbutanoyl]-4-hydroxy-N-{[4-(4-methyl-1,3-thiazol-5-yl)phenyl]methyl}pyrrolidine-2-carboxamide], on Androgen Receptor [1], the DC50 was < 50 nM and the greatest degradation seen (Dmax) is > 71%.

Regarding `Cc1ncsc1-c1ccc(CNC(=O)[C@@H]2C[C@@H](O)CN2C(=O)[C@@H](NC(=O)COCCCOCCCCCOc2ccc(N3C(=S)N(c4ccc([N+](=O)[O-])c(C(F)(F)F)c4)C(=O)C3(C)C)cc2)C(C)(C)C)cc1` [Example 5, (2S,4R)-1-[(2S)-2-[2-(3-{[5-(4-{5,5-dimethyl-3-[4-nitro-3-(trifluoromethyl)phenyl]-4-oxo-2-sulfanylideneimidazolidin-1-yl}phenoxy)pentyl]oxy}propoxy)acetamido]-3,3-dimethylbutanoyl]-4-hydroxy-N-{[4-(4-methyl-1,3-thiazol-5-yl)phenyl]methyl}pyrrolidine-2-carboxamide], on Androgen Receptor [1], the DC50 was in the range of 51 to 500 nM and the Dmax is > 71%.

Regarding `Cc1cc(N2C(=O)C(C)(C)N(c3ccc(OCCCCCOCCCOCC(=O)N[C@H](C(=O)N4C[C@H](O)C[C@H]4C(=O)NCc4ccc(-c5scnc5C)cc4)C(C)(C)C)cc3)C2=S)ccc1C#N` [Example 6, (2S,4R)-1-[(2S)-2-(2-{3-[(5-{4-[3-(4-cyano-3-methylphenyl)-5,5-dimethyl-4-oxo-2-sulfanylideneimidazolidin-1-yl]phenoxy}pentyl)oxy]propoxy}acetamido)-3,3-dimethylbutanoyl]-4-hydroxy-N-{[4-(4-methyl-1,3-diiazol-5-yl)phenyl]methyl}pyrrolidine-2-carboxamid], at Androgen Receptor [1], the DC50 was < 50 nM and the greatest degradation seen (Dmax) is > 71%.

For the compound `Cc1ncsc1-c1ccc(CNC(=O)[C@@H]2C[C@@H](O)CN2C(=O)[C@@H](NC(=O)COCCCOCCCCCOc2ccc(N3C(=S)N(c4ccc(C#N)c(F)c4)C(=O)C3(C)C)cc2)C(C)(C)C)cc1` [Example 7], on Androgen Receptor [1], the DC50 is < 50 nM and the greatest degradation seen (Dmax) was in the range of 51 to 70%.

In the case of `CC(=O)O[C@@H]1C[C@@H](C(=O)N[C@@H](C)c2ccc(-c3scnc3C)cc2)N(C(=O)[C@H](C(C)C)N2Cc3ccc(OCCN4CCN(c5ccc(C(=O)N[C@H]6C(C)(C)[C@H](Oc7ccc(C#N)c(Cl)c7)C6(C)C)cn5)CC4)cc3C2=O)C1` [Example 857, (3R,5S)-1-((S)-2-(6-(2-(4-(5-(((1r,3r)-3-(3-chloro-4-cyanophenoxy)-2,2,4,4-tetramethylcyclobutyl)carbamoyl)pyridin-2-yl)piperazin-1-yl)ethoxy)-1-oxoisoindolin-2-yl)-3-methylbutanoyl)-5-(((S)-1-(4-(4-methylthiazol-5-yl)phenyl)ethyl)carbamoyl)pyrrolidin-3-yl acetate], the DC50 on Androgen Receptor [2] (VCaP cells, Table 36) was > 501 nM. Further, on Androgen Receptor [2], the Dmax was < 25%.

`Cc1ncsc1-c1ccc([C@H](C)NC(=O)[C@H]2C[C@H](O)CN2C(=O)[C@@H](NC(=O)CN2C3CCC2CN(CCCCc2ccc(C(=O)N[C@H]4C(C)(C)[C@H](Oc5ccc(C#N)c(Cl)c5)C4(C)C)cc2)C3)C(C)(C)C)cc1` [Example 858, (2R,4S)-1-((2S)-2-(2-(3-(4-(4-(((1r,3r)-3-(3-chloro-4-cyanophenoxy)-2,2,4,4-tetramethylcyclobutyl)carbamoyl)phenyl)butyl)-3,8-diazabicyclo[3.2.1]octan-8-yl)acetamido)-3,3-dimethylbutanoyl)-4-hydroxy-N-((S)-1-(4-(4-methylthiazol-5-yl)phenyl)ethyl) pyrrolidine-2-carboxamide]: the DC50 on Androgen Receptor [2] (VCaP cells, Table 36) was > 501 nM. Also, the Dmax on Androgen Receptor [2] is < 25%.

Turning to `Cc1ncsc1-c1ccc([C@H](CO)NC(=O)[C@@H]2C[C@@H](O)CN2C(=O)[C@@H](NC(=O)CN2CCN(CCCCc3ccc(C(=O)N[C@H]4C(C)(C)[C@H](Oc5ccc(C#N)c(Cl)c5)C4(C)C)cc3)CC2)C(C)(C)C)cc1` [Example 859, (2S,4R)-1-((S)-2-(2-(4-(4-(4-(((1r,3r)-3-(3-chloro-4-cyanophenoxy)-2,2,4,4-tetramethylcyclobutyl)carbamoyl)phenyl)butyl)piperazin-1-yl)acetamido)-3,3-dimethylbutanoyl)-4-hydroxy-N-((R)-2-hydroxy-1-(4-(4-methylthiazol-5-yl)phenyl)ethyl) pyrrolidine-2-carboxamide], on Androgen Receptor [2] (VCaP cells, Table 36), the half-maximal degradation concentration (DC50) was < 50 nM and the Dmax was > 71%.

Take `Cc1ncsc1-c1ccc([C@H](C)NC(=O)[C@@H]2C[C@@H](O)CN2C(=O)[C@@H](NC(=O)CN[C@H]2C[C@H](N3CCN(c4ccc(C(=O)N[C@H]5C(C)(C)[C@H](Oc6ccc(C#N)c(Cl)c6)C5(C)C)cn4)CC3)C2)C(C)(C)C)cc1` [Example 860, N-((1r,3R)-3-(3-chloro-4-cyanophenoxy)-2,2,4,4-tetramethylcyclobutyl)-6-(4-((1S,3R)-3-((2-(((S)-1-((2S,4R)-4-hydroxy-2-(((S)-1-(4-(4-methylthiazol-5-yl)phenyl)ethyl)carbamoyl)pyrrolidin-1-yl)-3,3-dimethyl-1-oxobutan-2-yl)amino)-2-oxoethyl)amino)cyclobutyl)piperazin-1-yl)nicotinamide]: the DC50 at Androgen Receptor [2] (VCaP cells, Table 36) is < 50 nM. Moreover, the Dmax at Androgen Receptor [2] fell in the range of 51 to 70%.

As to `Cc1ncsc1-c1ccc([C@H](C)NC(=O)[C@@H]2C[C@@H](O)CN2C(=O)[C@@H](NC(=O)CN[C@H]2C[C@@H](N3CCN(c4ccc(C(=O)N[C@H]5C(C)(C)[C@H](Oc6ccc(C#N)c(Cl)c6)C5(C)C)cn4)CC3)C2)C(C)(C)C)cc1` [Example 861, N-((1r,3R)-3-(3-chloro-4-cyanophenoxy)-2,2,4,4-tetramethylcyclobutyl)-6-(4-((1R,3S)-3-((2-(((S)-1-((2S,4R)-4-hydroxy-2-(((S)-1-(4-(4-methylthiazol-5-yl)phenyl)ethyl)carbamoyl)pyrrolidin-1-yl)-3,3-dimethyl-1-oxobutan-2-yl)amino)-2-oxoethyl)amino)cyclobutyl)piperazin-1-yl)nicotinamide], the 50% degradation concentration (DC50) on Androgen Receptor [2] (VCaP cells, Table 36) was < 50 nM. For the same compound, the Dmax at Androgen Receptor [2] was in the range of 51 to 70%.

Take `Cc1ncsc1-c1ccc([C@H](C)NC(=O)[C@@H]2C[C@@H](OC(=O)CCC(=O)O)CN2C(=O)[C@@H](NC(=O)COCCN2CCN(c3ccc(C(=O)N[C@H]4C(C)(C)[C@H](Oc5ccc(C#N)c(Cl)c5)C4(C)C)cn3)CC2)C(C)(C)C)cc1` [Example 862, 4-(((3R,5S)-1-((S)-2-(2-(2-(4-(5-(((1r,3r)-3-(3-chloro-4-cyanophenoxy)-2,2,4,4-tetramethylcyclobutyl)carbamoyl)pyridin-2-yl)piperazin-1-yl)ethoxy)acetamido)-3,3-dimethylbutanoyl)-5-(((S)-1-(4-(4-methylthiazol-5-yl)phenyl)ethyl)carbamoyl)pyrrolidin-3-yl)oxy)-4-oxobutanoic acid]: at Androgen Receptor [2] (VCaP cells, Table 36), the DC50 was < 50 nM and the Dmax was > 71%.

For the compound `[2H]C(Nc1ccc(C(=O)N[C@H]2C(C)(C)[C@H](Oc3ccc(C#N)c(Cl)c3)C2(C)C)cc1)C([2H])([2H])C([2H])([2H])C([2H])([2H])C([2H])([2H])OCC(=O)N[C@H](C(=O)N1C[C@H](O)C[C@H]1C(=O)N[C@@H](C)c1ccc(-c2scnc2C)cc1)C(C)(C)C` (stereo partly drawn) [Example 863], at Androgen Receptor [2] (VCaP cells, Table 36), the DC50 is < 50 nM and the Dmax was > 71%.

In the case of `C/C(=N\OCCN1CCN(CC(=O)N[C@H](C(=O)N2C[C@H](O)C[C@H]2C(=O)N[C@@H](C)c2ccc(-c3scnc3C)cc2)C(C)(C)C)CC1)c1cc(C(=O)N[C@@H](C)Cn2ccc(-c3ccc(C#N)c(Cl)c3)n2)n[nH]1` [Example 864, N-((S)-1-(3-(3-Chloro-4-cyanophenyl)-1H-pyrazol-1-yl)propan-2-yl)-5-((E)-1-((2-(4-(2-(((S)-1-((2S,4R)-4-hydroxy-2-(((S)-1-(4-(4-methylthiazol-5-yl)phenyl)ethyl)carbamoyl)pyrrolidin-1-yl)-3,3-dimethyl-1-oxobutan-2-yl)amino)-2-oxoethyl)piperazin-1-yl)ethoxy)imino)ethyl)-1H-pyrazole-3-carboxamide], on Androgen Receptor [2] (VCaP cells, Table 36), the DC50 was < 50 nM and the Dmax was < 25%.
